Test results published in patent US7642354B2, “Polycyclic pyrazines as potassium ion channel modulators” (Icagen, Inc., priority 2004, dated 2010).
Where “and” joins values, the source holds several entries; their conditions need not be identical. Equal entries are not always repeated.

Each molecule was assayed against hSK2 (Homo sapiens, UniProt Q9H2S1) (assay: Assay for compound activity towards hSK channels (86Rb+ efflux)). Settings: 86Rb+ efflux stimulated with calcium ionophore; drug 0.01 to 30 μM in EBSS; read-out: hSK2 Inhibitory Activity.
Format: cell-based
Protocol: 18.1 Assay for Compound Activity Towards hSK Channels Cells expressing small conductance, calcium activated potassium channels, such as SK-like channels were loaded with ^86Rb^+ by culture in media containing ^86RbCl. Following loading, the culture media was removed and the cells were washed in EBSS to remove residual traces of ^86Rb^+. Cells were preincubated with the drug (0.01 to 30 μM in EBSS) and then ^86Rb^+ efflux was stimulated by exposing cells to EBSS solution supplemented with a calcium ionophore, such as ionomycin, in the continued presence of the drug. After a suitable efflux period, the EBSS/ionophore solution was removed from the cells and the ^86Rb^+ content was determined by Cherenkov counting (Wallac Trilux). Cells were then lysed with a SDS solution and the ^86Rb^+ content of the lysate was determined. Percent ^86Rb^+ efflux was calculated according to the following equation: (^86Rb^+ content in EBSS/(^86Rb^+ content in EBSS+^86Rb^+ content of the lysate))×100

SMILES | IC50
NC(=O)c1cnn(-c2ccccc2)c1Nc1cncc(-c2ccccn2)n1 [1-Phenyl-5-(6-pyridin-2-yl-pyrazin-2-ylamino)-1H-pyrazole-4-carboxylic acid amide] | 3 to 30 µM
CCOC(=O)c1cnn(-c2ccccc2)c1Nc1cncc(-c2ccccn2)n1 [1-Phenyl-5-(6-pyridin-2-yl-pyrazin-2-ylamino)-1H-pyrazole-4-carboxylic acid ethyl ester] | 3 to 30 µM
CC(=O)c1sc(Nc2cncc(-c3ccccn3)n2)nc1C [1-[4-Methyl-2-(6-pyridin-2-yl-pyrazin-2-ylamino)-thiazol-5-yl]ethanone] | 3 to 30 µM
O=C1CCCN1c1ccc(Nc2cncc(-c3ccccn3)n2)nc1 [1-[6-(6-Pyridin-2-yl-pyrazin-2-ylamino)-pyridin-3-yl]-pyrrolidin-2-one] | < 0.05 µM
O=C1CCCN1c1ccc(Nc2cncc(-c3nccs3)n2)nc1 [1-[6-(6-Thiazol-2-yl-pyrazin-2-ylamino)-pyridin-3-yl]-pyrrolidin-2-one] | 0.05 to 1 µM
Cc1cnn(-c2cncc(Nc3ccc(N4CCCC4=O)cn3)n2)c1 [1-{6-[6-(4-Methyl-pyrazol-1-yl)-pyrazin-2-ylamino]-pyridin-3-yl}-pyrrolidin-2-one] | 0.05 to 1 µM
COc1cccc(-c2cncc(-c3cccc(OC)n3)n2)n1 [2,6-Bis-(6-methoxy-pyridin-2-yl)-pyrazine] | 3 to 30 µM
Oc1cccnc1Nc1cncc(-c2ccccn2)n1 [2-(6-Pyridin-2-yl-pyrazin-2-ylamino)-pyridin-3-ol] | 3 to 30 µM
CCOC(=O)c1c[nH]nc1Nc1cncc(-c2ccccn2)n1 [3-(6-Pyridin-2-yl-pyrazin-2-ylamino)-1H-pyrazole-4-carboxylic acid ethyl ester] | 3 to 30 µM
N#Cc1cncnc1Nc1cncc(-c2ccccn2)n1 [4-(6-Pyridin-2-yl-pyrazin-2-ylamino)-pyrimidine-5-carbonitrile] | 3 to 30 µM
CN1CCN(c2ccc(Nc3cncc(-c4ccccn4)n3)nc2)C(=O)C1 [4-Methyl-1-[6-(6-pyridin-2-yl-pyrazin-2-ylamino)-pyridin-3-yl]-piperazin-2-one] | 3 to 30 µM
CCOC(=O)c1sc(Nc2cncc(-c3ccccn3)n2)nc1-c1ccccc1 [4-Phenyl-2-(6-pyridin-2-yl-pyrazin-2-ylamino)-thiazole-5-carboxylic acid ethyl ester] | 3 to 30 µM
NC(=O)c1ncc(-c2ccccn2)nc1Nc1ccccn1 [5-Pyridin-2-yl-3-(pyridin-2-ylamino)-pyrazine-2-carboxylic acid amide] | 3 to 30 µM
NC(=O)c1ccc(Nc2cncc(-c3ccccn3)n2)nc1 [6-(6-Pyridin-2-yl-pyrazin-2-ylamino)-nicotinamide] | 3 to 30 µM
Cn1c(Nc2cncc(-c3ccccn3)n2)nc2ccccc21 [(1-Methyl-1H-benzoimidazol-2-yl)-(6-pyridin-2-yl-pyrazin-2-yl)-amine] | 3 to 30 µM
[O-][n+]1ccccc1Nc1cncc(-c2ccccn2)n1 [(1-Oxy-pyridin-2-yl)-(6-pyridin-2-yl-pyrazin-2-yl)-amine] | 3 to 30 µM
Cc1cc(Nc2cncc(-c3ccccn3)n2)c2ccccc2n1 [(2-Methyl-quinolin-4-yl)-(6-pyridin-2-yl-pyrazin-2-yl)-amine] | 3 to 30 µM
Cc1noc(Nc2cncc(-c3ccccn3)n2)c1C [(3,4-Dimethyl-isoxazol-5-yl)-(6-pyridin-2-yl-pyrazin-2-yl)-amine] | 3 to 30 µM
c1ccc(COc2cccnc2Nc2cncc(-c3ccccn3)n2)cc1 [(3-Benzyloxy-pyridin-2-yl)-(6-pyridin-2-yl-pyrazin-2-yl)-amine] | 3 to 30 µM
Brc1ncc(-c2ccccn2)nc1Nc1ccccn1 [(3-Bromo-6-pyridin-2-yl-pyrazin-2-yl)-pyridin-2-yl-amine] | 1 to 3 µM
FC(F)(F)c1cnc(Nc2cncc(-c3ccccn3)n2)c(Cl)c1 [(3-Chloro-5-trifluoromethyl-pyridin-2-yl)-(6-pyridin-2-yl-pyrazin-2-yl)-amine] | 3 to 30 µM
CCCCCOc1cccnc1Nc1cncc(-c2ccccn2)n1 [(3-Pentyloxy-pyridin-2-yl)-(6-pyridin-2-yl-pyrazin-2-yl)-amine] | 3 to 30 µM
COc1cc(OC)nc(Nc2cncc(-c3ccccn3)n2)n1 [(4,6-Dimethoxy-pyrimidin-2-yl)-(6-pyridin-2-yl-pyrazin-2-yl)-amine] | 3 to 30 µM
CC1CCN(c2ccc(Nc3cncc(-c4ccccn4)n3)nc2)CC1 [(4-Methyl-3,4,5,6-tetrahydro-2H-[1,3′]bipyridinyl-6′-yl)-(6-pyridin-2-yl-pyrazin-2-yl)-amine] | 0.05 to 1 µM
Cc1ccnc(Nc2cncc(-c3ccccn3)n2)c1[N+](=O)[O-] [(4-Methyl-3-nitro-pyridin-2-yl)-(6-pyridin-2-yl-pyrazin-2-yl)-amine] | 3 to 30 µM
Cc1ccnc(Nc2cncc(-c3ccccn3)n2)c1 [(4-Methyl-pyridin-2-yl)-(6-pyridin-2-yl-pyrazin-2-yl)-amine] | < 0.05 µM

SMILES | IC50
Cc1ccnc(Nc2cncc(-c3cc(N4CCCC4)ccn3)n2)c1 [(4-Methyl-pyridin-2-yl)-[6-(4-pyrrolidin-1-yl-pyridin-2-yl)-pyrazin-2-yl]-amine] | 0.05 to 1 µM
c1ccc(-c2csc(Nc3cncc(-c4ccccn4)n3)n2)cc1 [(4-Phenyl-thiazol-2-yl)-(6-pyridin-2-yl-pyrazin-2-yl)-amine] | 3 to 30 µM
Brc1ccc(Nc2cnc(Br)c(-c3ccccn3)n2)nc1 [(5-Bromo-pyridin-2-yl)-(5-bromo-6-pyridin-2-yl-pyrazin-2-yl)-amine] | 3 to 30 µM
Brc1ccc(Nc2cncc(-c3ccccn3)n2)nc1 [(5-Bromo-pyridin-2-yl)-(6-pyridin-2-yl-pyrazin-2-yl)-amine] | 0.05 to 1 µM
Clc1ccc(Nc2cncc(-c3ccccn3)n2)nc1 [(5-Chloro-pyridin-2-yl)-(6-pyridin-2-yl-pyrazin-2-yl)-amine] | 0.05 to 1 µM
Clc1ccc(Nc2cncc(-c3cc(N4CCCC4)ccn3)n2)nc1 [(5-Chloro-pyridin-2-yl)-[6-(4-pyrrolidin-1-yl-pyridin-2-yl)-pyrazin-2-yl]-amine] | 1 to 3 µM
COc1cccc(-c2cncc(Nc3ccc(Cl)cn3)n2)n1 [(5-Chloro-pyridin-2-yl)-[6-(6-methoxy-pyridin-2-yl)-pyrazin-2-yl]-amine] | 3 to 30 µM
Fc1ccc(Nc2cncc(-c3ccccn3)n2)nc1 [(5-Fluoro-pyridin-2-yl)-(6-pyridin-2-yl-pyrazin-2-yl)-amine] | 0.05 to 1 µM and 1 to 3 µM
Cc1ccnc(-c2cncc(Nc3ccc(F)cn3)n2)c1 [(5-Fluoro-pyridin-2-yl)-[6-(4-methyl-pyridin-2-yl)-pyrazin-2-yl]-amine] | 0.05 to 1 µM
Fc1ccc(Nc2cncc(-c3cc(N4CCCC4)ccn3)n2)nc1 [(5-Fluoro-pyridin-2-yl)-[6-(4-pyrrolidin-1-yl-pyridin-2-yl)-pyrazin-2-yl]-amine] | 3 to 30 µM
Cc1ccc(-c2cncc(Nc3ccc(F)cn3)n2)nc1 [(5-Fluoro-pyridin-2-yl)-[6-(5-methyl-pyridin-2-yl)-pyrazin-2-yl]-amine] | 3 to 30 µM
c1ccc(-c2cncc(Nc3cc(-c4ccco4)n[nH]3)n2)nc1 [(5-Furan-2-yl-2H-pyrazol-3-yl)-(6-pyridin-2-yl-pyrazin-2-yl)-amine] | 3 to 30 µM
c1ccc(-c2cncc(Nc3ccc(-c4ccco4)cn3)n2)nc1 [(5-Furan-2-yl-pyridin-2-yl)-(6-pyridin-2-yl-pyrazin-2-yl)-amine] | 0.05 to 1 µM
Cc1cnn(-c2cncc(Nc3ccc(I)cn3)n2)c1 [(5-Iodo-pyridin-2-yl)-[6-(4-methyl-pyrazol-1-yl)-pyrazin-2-yl]-amine] | 3 to 30 µM
Cc1cc(Nc2cncc(-c3ccccn3)n2)[nH]n1 [(5-Methyl-2H-pyrazol-3-yl)-(6-pyridin-2-yl-pyrazin-2-yl)-amine] | 0.05 to 1 µM
Cc1nnc(Nc2cncc(-c3ccccn3)n2)s1 [(5-Methyl-[1,3,4]thiadiazol-2-yl)-(6-pyridin-2-yl-pyrazin-2-yl)-amine] | 3 to 30 µM
c1ccc(-c2cncc(Nc3ccc(N4CCOCC4)cn3)n2)nc1 [(5-Morpholin-4-yl-pyridin-2-yl)-(6-pyridin-2-yl-pyrazin-2-yl)-amine] | < 0.05 µM
O=[N+]([O-])c1ccc(Nc2cncc(-c3ccccn3)n2)nc1 [(5-Nitro-pyridin-2-yl)-(6-pyridin-2-yl-pyrazin-2-yl)-amine] | 3 to 30 µM
c1ccc(-c2ccc(Nc3cncc(-c4ccccn4)n3)nc2)cc1 [(5-Phenyl-pyridin-2-yl)-(6-pyridin-2-yl-pyrazin-2-yl)-amine] | 0.05 to 1 µM
c1ccc(-c2ccc(Nc3cncc(-c4nccs4)n3)nc2)cc1 [(5-Phenyl-pyridin-2-yl)-(6-thiazol-2-yl-pyrazin-2-yl)-amine] | 3 to 30 µM
c1ccc(-c2ccc(Nc3cncc(-c4cc(N5CCCC5)ccn4)n3)nc2)cc1 [(5-Phenyl-pyridin-2-yl)-[6-(4-pyrrolidin-1-yl-pyridin-2-yl)-pyrazin-2-yl]-amine] | 3 to 30 µM
CC(C)(C)c1nnc(Nc2cncc(-c3ccccn3)n2)s1 [(5-tert-Butyl-[1,3,4]thiadiazol-2-yl)-(6-pyridin-2-yl-pyrazin-2-yl)-amine] | 3 to 30 µM
c1ccc(Nc2cncc(-c3cc4ccccc4s3)n2)nc1 [(6-Benzo[b]thiophen-2-yl-pyrazin-2-yl)-pyridin-2-yl-amine] | 3 to 30 µM
c1ccc(Nc2cncc(-c3cc4ccccc4o3)n2)nc1 [(6-Benzofuran-2-yl-pyrazin-2-yl)-pyridin-2-yl-amine] | 3 to 30 µM
Fc1cccc(Nc2cncc(-c3ccccn3)n2)n1 [(6-Fluoro-pyridin-2-yl)-(6-pyridin-2-yl-pyrazin-2-yl)-amine] | 1 to 3 µM
